From article PMC12389136, “Insights into the Structural Patterns in Human Glioblastoma Cell Line SF268 Activity and ADMET Prediction of Curcumin Derivatives” (Pharmaceutics, 2025)

System: ROS production in SF268 cells
Assay: Intracellular reactive oxygen species production (DCFDA)
Type: cell-based, Human
Conditions: derivatives 10 µg/mL for 3 h, H2O2 100 µM positive control
Experimental: Intracellular ROS formation was measured by fluorometry with the reactive dye chloromethyl dichlorodihydrofluorescein diacetate (DCFDA; Molecular Probes). […] Cultures were incubated with curcumin derivatives at 10 μg/mL for 3 h, after which the ROS-specific fluorescent dye DCFDA solution was added to the cells. After 30 min, fluorescence was measured at a wavelength of 485 nm (excitation)/535 nm (emission) using a microplate reader (Molecular Devices, San Jose, CA, USA).
Intracellular ROS production was tested following the treatment of SF268 cells with the curcumin derivatives at 10 μg/mL by fluorometry after staining with DCFDA.
Figure 7 Effects of curcumin derivatives on ROS generation. Cells were treated with curcumin derivatives at 10 μg/mL for 3 h. ROS production was determined using the DCFH-DA assay.

SMILES | ROS production
OO [Compound H2O2, Hydrogen peroxide] | distinct ROS production
O=C1O[C@H]([C@@H](O)CO)C(O)=C1O [ascorbic acid] | expected decrease
